Measurements published in article PMC6465774 (Frontiers in Pharmacology, 2019).
Where a name gives a salt, the structure may show the parent alone.

Experiments:
MOR = target: T1, MOR (Rattus norvegicus, UniProt P33535); assay: [3H]DAMGO saturation binding in dorsal spinal cord membranes
T1 construct: incubating 50–100 μg of membrane protein of lumbar dorsal horn with 0.1- 4 nM; from tissue; host or cells: rat lumbar (L3-5) dorsal spinal cord / dorsal horn membranes, diabetic and control rats

[1] = test system: gastric emptying in weight-matched control rats; conditions: 0.1 mg/kg s.c. 30 min before methylcellulose, weight-matched control animals, n = 7
Procedure: After 20 min the rats were sacrificed and the stomachs were removed after clamping the pylorus and cardia. […] Gastric emptying (%) was calculated as follows: [1 – (absorbance of sample / maximal absorbance)] × 100. Maximal absorbance was measured by processing the test meal alone, as described above.
In a separate experiment, weight match animals were treated either with saline, or with clonidine (0.1 mg/kg), an alpha2 adrenoceptor agonist and well-known inhibitor of gastric emptying, subcutaneously 30 min before the methylcellulose administration.

[2] = test system: STZ treated diabetic and weight matched non-diabetic rats (paw pressure withdrawal threshold); conditions: rat, in vivo
[3] = test system: STZ treated diabetic rats with allodynia; conditions: rat, in vivo
respiratory functions = conditions: dose of 253 nmol/kg; ref our previous work; cited from earlier work
[4] = test system: STZ treated neuropathic rats; assay: Antagonist effect of co-administered NAL-M on the antiallodynic effect of s.c. opioids (DPA); assay type: in vivo, rat
STZ treated animals = test system: STZ treated animals; design: method as in Yamamoto et al., 2009; conditions: doses up to 10 mg/kg (approximately 31 μmol/kg), 7 weeks following STZ treatment; ref Yamamoto et al., 2009; cited from earlier work

T1 sequence (P33535 whole entry): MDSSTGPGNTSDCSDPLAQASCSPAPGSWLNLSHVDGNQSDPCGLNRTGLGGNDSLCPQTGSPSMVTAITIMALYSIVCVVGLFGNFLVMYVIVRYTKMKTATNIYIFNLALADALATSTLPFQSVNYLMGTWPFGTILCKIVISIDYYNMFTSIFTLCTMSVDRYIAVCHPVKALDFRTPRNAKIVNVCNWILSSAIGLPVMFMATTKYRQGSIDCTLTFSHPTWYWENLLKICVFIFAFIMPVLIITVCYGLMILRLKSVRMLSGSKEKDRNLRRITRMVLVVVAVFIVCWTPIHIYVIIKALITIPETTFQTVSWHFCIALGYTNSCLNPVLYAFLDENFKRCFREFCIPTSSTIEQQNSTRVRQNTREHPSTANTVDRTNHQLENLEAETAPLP

Question: Which “Bmax of [3H]DAMGO binding, controls” value (MOR; dorsal horn of control rats) does the source give for `C[C@@H](NC(=O)[C@@H](N)Cc1ccc(O)cc1)C(=O)NCC(=O)N(C)[C@@H](Cc1ccccc1)C(=O)NCCO` [DAMGO, Tyr-D-Ala-Gly-(NMe)Phe-Gly-ol] here?
Answer: 23.55 ± 4.36 fmol/mg

Question: And the “Bmax of [3H]DAMGO binding, diabetic rats” value (MOR; dorsal horn of diabetic rats)?
Answer: 13.11 ± 1.85 fmol/mg

Question: Which gastric emptying [1] does the source give for `Clc1cccc(Cl)c1N=C1NCCN1` [clonidine, clonidine-hydrochloride] here?
Answer: 55 ± 2%

Question: Which “times higher potency than morphine in diabetic conditions based on ED30 values” [2] does the source give for `CO[C@@]12C=C[C@H](OS(=O)(=O)O)[C@@H]3Oc4c(O)ccc5c4[C@@]31CCN(C)[C@@H]2C5` [14-O-MeM6SU, 14-O-methylmorphine-6-O-sulfate] here?
Answer: 48 times

Question: And the “ED30 (effective dose producing 30% effect), diabetic animals” value ([2]; sc)?
Answer: 434 nmol/kg

Question: And the “ED30 (effective dose producing 30% effect), non-diabetic animals” value ([2]; sc)?
Answer: 335 nmol/kg

Question: And the “antinociceptive action in naïve rats at 253 nmol/kg” value ([2]; sc)?
Answer: failed to show any significant antinociceptive action

Question: And the “dose inducing significant antinociceptive action in naïve (weight matched) rats” value ([2]; sc)?
Answer: 506 nmol/kg

Question: What about the “time of peak antinociceptive effect” value ([2]; sc) of the same compound?
Answer: 60 min

Question: And the “antiallodynic effect at 12th week of diabetes at the lowest antiallodynic dose” value [3]?
Answer: produced antiallodynic effects

Question: And the “antiallodynic action in diabetic rats, all tested doses” value ([3]; sc)?
Answer: significantly ameliorated the allodynia

Question: And the “lowest dose that significantly attenuated the allodynia (lowest antiallodynic dose)” value ([3]; sc)?
Answer: 253 nmol/kg

Question: What about the respiratory depression (respiratory functions) of the same compound?
Answer: no respiratory depression

Question: Which “effect of co-administered NAL-M on the antiallodynic action of 14-O-MeM6SU and morphine” value ([4]; NAL-M 10.6 μmol/kg s.c., co-administered with s.c. 14-O-MeM6SU or morphine) does the source give for `C=CC[N+]1(C)CC[C@]23c4c5ccc(O)c4O[C@H]2C(=O)CC[C@@]3(O)[C@H]1C5` (some centres unmarked) [NAL-M, Naloxone methiodide] here?
Answer: failed to alter the antiallodynic action

Question: And the “effect of NAL-M alone” value ([4]; NAL-M alone, n = 5, data not shown)?
Answer: no effect

Question: With `CN1CC[C@]23c4c5ccc(O)c4O[C@H]2[C@@H](O)C=C[C@H]3[C@H]1C5` [Morphine, morphine hydrochloride] as the compound, how does the ED30diabetic/ED30non-diabetic [2] read?
Answer: 7

Question: And the “ED30 (effective dose producing 30% effect), diabetic animals” value ([2]; sc)?
Answer: 20692 nmol/kg

Question: And the “ED30 (effective dose producing 30% effect), non-diabetic animals” value ([2]; sc)?
Answer: 6589 nmol/kg

Question: And the “dose inducing significant antinociceptive action in naïve (weight matched) rats” value ([2]; sc)?
Answer: ≥ 2500 nmol/kg

Question: What about the “time of peak antinociceptive effect” value ([2]; sc) of the same compound?
Answer: 30 min

Question: What about the “antiallodynic effect at 12th week of diabetes at the lowest antiallodynic dose” value [3] of the same compound?
Answer: produced antiallodynic effects

Question: And the “lowest dose that significantly attenuated the allodynia (lowest antiallodynic dose)” value ([3]; sc)?
Answer: 40000 nmol/kg

Question: What about the “effectiveness of morphine in doses up to 10 mg/kg” value (STZ treated animals) of the same compound?
Answer: ineffectiveness
